In patent US6994862B2, “Formulation solubilizing water-insoluble agents and preparation method thereof” (Korea Institute of Science and Technology, priority 2000, dated 2006) one finds drug released data, which are given here for 1 compound.

This series can be described thus: Release experiment of a pharmaceutical compound (dialysis bag, PBS pH 7.4, 37° C.). Type of series: physicochemical. To be noted: within 5 hr; dialysis bag in PBS pH 7.4, 37° C. As for the experimental part: Dispersion was prepared by mixing 250 μL of the above liquid formulation with 1.75 mL of distilled water and shaken manually. The mixture was then added into a dialysis bag (MWCO=3,500, Spectra/Por^R, Spectrum Medical Industries, Inc., USA), both ends were tied with a closure, and placed into a 50 ml conical tube containing 10 ml of phosphate buffered saline (PBS, pH=7.4). The conical tube was placed in a 37° C. shaking water bath for the release experiment. The PBS solution located outside the dialysis tube was collected at regular intervals to analyze concentration of the pharmaceutical compound released from the dialysis bag by using Fluorescence spectroscopy (λex=370 nm, λem=480 nm). An aqueous solution where 0.7 mg of rifampicin was dissolved in 2 mL of distilled water was used as a control.
Release experiment was performed using the liquid formulation manufactured the same as in the experimental Example 1 with the exception that 0.7 mg of bromocresol green was used in place of rifampicin. The released drug was collected from the PBS solution and subsequently analyzed for its absorbance at 617 nm. An aqueous solution, where 0.7 mg of bromocresol green was dissolved in 2 mL of distilled water, was used as a control.

Regarding `Cc1c(C2(c3cc(Br)c(O)c(Br)c3C)OS(=O)(=O)c3ccccc32)cc(Br)c(O)c1Br` [bromocresol green], the drug released result is given as “more than 80%”.
